Read-outs that look alike come from different tables or passages of the source.
What was measured:
[1] = target: T1, CDK4/cyclin D3 (Homo sapiens, UniProt P11802); assay: Human CDK4/cyclin D3 inhibitory activity (QS S Assist CDK4/Cyclin D3_FP Kit, IMAP fluorescence polarization); format: biochemical
T1 construct: purchased Carna Biosciences, Inc. QS S Assist CDK4/Cyclin D3_FP Kit
How it was run: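 IMAP fluorescence polarization kit: CDK4/cyclin D3 at 12.5-25 ng/well with kit ATP/substrate/metal mix in 20 mM HEPES pH 7.4, 0.01% Tween20, 2 mM DTT, 45 min at room temperature. FP read at 485/535 nm after 30 min binding; IC50 from dose-response fit of percent inhibition versus enzyme and no-enzyme controls.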

[2] = target: T2, CDK2/cyclin A2 (Homo sapiens, UniProt P24941); assay: Human CDK2/cyclin A2 inhibitory activity (QS S Assist CDK2/Cyclin A2_FP Kit, IMAP fluorescence polarization); format: biochemical
T2 construct: purchased Carna Biosciences, Inc. QS S Assist CDK2/Cyclin A2_FP Kit
How it was run: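 Kinase activity read as fluorescence polarization (485/535 nm) after phosphorylated fluorescent substrate binds IMAP reagent (30 min, RT, dark). Enzyme (2.5 ng/well) reacted 60 min at RT with ATP/substrate/metal in HEPES pH 7.4 buffer with Tween 20 and DTT; no-enzyme wells define 0% activity; IC50 by curve fit.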

[3] = 50% inhibitory concentration against CDK4/cyclin D3, given as class symbol
[4] = 50% inhibitory concentration against CDK2/cyclin A2, given as class symbol
[5] = Human CDK4/cyclin D3 inhibitory activity, read-out: CDK4 Activity symbol
[6] = Human CDK2/cyclin A2 inhibitory activity, read-out: CDK2 Activity symbol

T1 sequence (P11802 whole entry): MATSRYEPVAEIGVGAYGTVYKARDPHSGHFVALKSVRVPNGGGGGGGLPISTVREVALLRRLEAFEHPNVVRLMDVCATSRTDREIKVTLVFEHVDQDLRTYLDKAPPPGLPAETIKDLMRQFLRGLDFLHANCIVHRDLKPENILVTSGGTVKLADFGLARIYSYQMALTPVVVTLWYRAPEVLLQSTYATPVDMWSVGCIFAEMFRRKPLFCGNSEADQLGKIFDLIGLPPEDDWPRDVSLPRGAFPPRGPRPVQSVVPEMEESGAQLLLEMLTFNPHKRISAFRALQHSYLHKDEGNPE
T1 sequence (P30281 whole entry partner): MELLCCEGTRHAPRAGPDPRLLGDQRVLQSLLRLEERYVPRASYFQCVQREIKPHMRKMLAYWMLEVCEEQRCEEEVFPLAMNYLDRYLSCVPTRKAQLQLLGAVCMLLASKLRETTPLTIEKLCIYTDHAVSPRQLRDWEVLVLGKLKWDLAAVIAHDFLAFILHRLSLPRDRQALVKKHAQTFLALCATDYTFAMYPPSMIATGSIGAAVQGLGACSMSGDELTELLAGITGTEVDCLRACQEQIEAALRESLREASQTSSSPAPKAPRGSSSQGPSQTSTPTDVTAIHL

SMILES	IC50 [1, 3] [nM]	IC50 [2, 4] [nM]	IC50 [1, 5] [nM]	IC50 [2, 6] [nM]
CCCNc1nc([C@@H](C)O)cc2cnc(Nc3ccc4c(n3)CCN(C(=O)CO)C4)nc12 [Compound 1116]	< 10	≥ 100		
CC(C)Nc1nc([C@@H](C)O)cc2cnc(Nc3ccc(N4CCN(CC#N)CC4=O)cn3)nc12 [Compound 899]	< 10	≥ 100		
CNC(=O)CN1CCN(c2ccc(Nc3ncc4cc([C@@H](C)O)nc(NC(C)C)c4n3)nc2)C(=O)C1 [Compound 961]	< 10	≥ 100		
COC(C)c1cc2cnc(Nc3ccc(N4CC5CCC(C4)N5)cn3)nc2c(NC(C)C)n1 (centres unmarked) [Compound 501]			< 10	≥ 100
CC(C)Nc1nc([C@@H](C)O)cc2cnc(Nc3ccc(N4CCNCC4C(F)(F)F)cn3)nc12 (some centres unmarked) [Compound 764]	< 10	≥ 100		
O=C1CNCCN1c1ccc(Nc2ncc3c(Cl)c(C(F)F)nc(NCC4CCOCC4)c3n2)nc1 [Compound 840]	≥ 100	≥ 100		
C[C@@H](O)c1cc2cnc(Nc3ccc(OCCN(C)C)cn3)nc2c(N[C@H]2CCCOC2)n1 [Compound 629]	< 10	≥ 100		
CC(C)Nc1nc([C@@H](C)O)cc2cnc(Nc3ccc(CN4CCN(C(C)(C)CO)CC4)cn3)nc12 [Compound 700]	< 10	≥ 100		
O[C@H]1CC[C@H](Nc2nc(C(F)F)cc3cnc(Nc4ccc(N5CCNCC5)nn4)nc23)CC1 [Compound 387]			< 10	10 to 100
C[C@@H](O)c1cc2cnc(Nc3ccc(CN4CCC(CO)CC4)cn3)nc2c(NCC2CC2)n1 [Compound 1149]	< 10	≥ 100		
CC(C)Nc1nc([C@@H](C)O)cc2cnc(Nc3ccc(N4CCC(N(C)C)CC4)nn3)nc12 [Compound 491]			< 10	≥ 100
N#CCN1CCN(Cc2ccc(Nc3ncc4cc(C5CCOC5)nc(N[C@H]5CCCOC5)c4n3)nc2)CC1 (some centres unmarked) [Compound 1013]	< 10	≥ 100		
COCC(C)Nc1nc(C(F)F)cc2cnc(Nc3ccc(N4CCNCC4)cn3)nc12 (centres unmarked) [Compound 30]			< 10	10 to 100
C[C@@H](O)c1cc2cnc(Nc3ccc(CN4CCN(CCO)CC4)cn3)nc2c(NC2CC2)n1 [Compound 997]	< 10	≥ 100		
CC(C)Nc1nc([C@@H](C)O)cc2cnc(Nc3ccc(O[C@H]4CCNC[C@H]4F)cn3)nc12 [Compound 569]			< 10	≥ 100
C[C@@H](O)c1cc2cnc(Nc3ccc(CN4CCN(CCO)CC4)cn3)nc2c(NC23CC(C2)C3)n1 [Compound 1205]	< 10	≥ 100		
CC(C)Nc1nc([C@@H](C)O)cc2cnc(Nc3ccc(N4CCC(N)C4=O)cn3)nc12 (some centres unmarked) [Compound 583]			< 10	≥ 100
CC(C)Nc1nc([C@@H](C)O)cc2cnc(Nc3ccc(N4CCC(OCC(=O)O)CC4)nn3)nc12 [Compound 702]	10 to 100	≥ 100		
COC1CCN(c2ccc(Nc3ncc4cc([C@@H](C)O)nc(NC(C)C)c4n3)nn2)CC1 [Compound 761]	< 10	≥ 100		
CC(C)Nc1nc([C@@H](C)O)cc2cnc(Nc3ccc(N4CCNCCC4=O)cn3)nc12 [Compound 522]			< 10	10 to 100

SMILES	IC50 [1, 3] [nM]	IC50 [2, 4] [nM]	IC50 [1, 5] [nM]	IC50 [2, 6] [nM]
CC(C)Nc1nc([C@@H](C)O)cc2cnc(Nc3ccc(N4CCC(CO)C4)nn3)nc12 (some centres unmarked) [Compound 663]	< 10	≥ 100		
CC(O)c1cc2cnc(Nc3ccc(N4CCNCC4)cn3)nc2c(NC(C)(C)CO)n1 (centres unmarked) [Compound 45]			< 10	≥ 100
CCCNc1nc([C@@H](C)O)cc2cnc(Nc3ccc4c(n3)CCN(CCN(C)C)C4)nc12 [Compound 1138]	< 10	≥ 100		
CC(C)Nc1nc(C(F)F)cc2cnc(Nc3ccc(N4CCN(CCO)CC4)cn3)nc12 [Compound 49]			< 10	10 to 100
CC1(c2cc3cnc(Nc4ccc(CN5CCNCC5)cn4)nc3c(NCC3CC3)n2)COC1 [Compound 1109]	< 10	≥ 100		
CC(=O)N1CCC(c2ccc(Nc3ncc4cc(C(F)F)nc(NC(C)C)c4n3)nc2)CC1 [Compound 178]			< 10	≥ 100
CCNc1nc([C@@H](C)O)cc2cnc(Nc3ccc(CN4CCCN(CCO)CC4)cn3)nc12 [Compound 1216]	< 10	≥ 100		
CO[C@H](C)c1cc2cnc(Nc3ccc(N4CCNCC4)nn3)nc2c(NC2CCC(C)(C)OC2)n1 (some centres unmarked) [Compound 727]	< 10	≥ 100		
CC1(c2cc3cnc(Nc4ccc(CN5CCNCC5)cn4)nc3c(NC3CCC3)n2)COC1 [Compound 1108]	< 10	≥ 100		
CC(C)Nc1nc([C@@H](C)O)cc2cnc(Nc3ccc(CN4CCN(C(=O)C5CCCO5)CC4)cn3)nc12 (some centres unmarked) [Compound 1192]	< 10	≥ 100		
CC(C)Nc1nc([C@@H](C)O)cc2cnc(Nc3ccc4c(n3)CCN(C(=O)CN(C)C)C4)nc12 [Compound 905]	< 10	≥ 100		
COCCNCc1ccc(Nc2ncc3cc([C@@H](C)O)nc(NC(C)C)c3n2)nc1 [Compound 241]			< 10	≥ 100
C[C@@H](O)c1nc(N[C@H]2CCCOC2)c2nc(Nc3ccc(CN4CCNCC4)cn3)ncc2c1Cl [Compound 369]			< 10	≥ 100
CC(C)Nc1nc(C(F)F)cc2cnc(Nc3ccc(O[C@H]4CC[C@H](O)CC4)cn3)nc12 [Compound 120]			10 to 100	≥ 100
CC(=O)c1cc2cnc(Nc3ccc(N4CCNCC4)cn3)nc2c(NCC2CC2)n1 [Compound 1052]	10 to 100	≥ 100		
CC(C)Nc1nc([C@@H](C)O)cc2cnc(Nc3ccc4c(n3)CCN(S(=O)(=O)N(C)C)C4)nc12 [Compound 935]	10 to 100	≥ 100		
CC(C)Nc1nc(C(F)F)cc2cnc(Nc3ccc(CCCN4CCOCC4=O)cn3)nc12 [Compound 168]			< 10	10 to 100
CC(C)Nc1nc([C@@H](C)O)cc2cnc(Nc3ccc(N4CC(O)C4)nn3)nc12 [Compound 666]	< 10	≥ 100		
CC(C)Nc1nc([C@@H](C)O)cc2cnc(Nc3ccc(CCCN4CCOCC4=O)cn3)nc12 [Compound 229]			< 10	≥ 100
C[C@@H](O)c1cc2cnc(Nc3ccc4c(n3)CCN(C(=O)CO)C4)nc2c(N[C@H]2CC[C@H](C)CC2)n1 [Compound 652]	< 10	≥ 100		

SMILES	IC50 [1, 3] [nM]	IC50 [2, 4] [nM]	IC50 [1, 5] [nM]	IC50 [2, 6] [nM]
CO[C@H](C)c1cc2cnc(Nc3ccc(N4CCCNCC4=O)cn3)nc2c(NC(C)C)n1 [Compound 492]			< 10	10 to 100
CC(C)Nc1nc([C@@H](C)O)cc2cnc(Nc3ccc(N4CCC(CO)CC4)nn3)nc12 [Compound 660]	< 10	≥ 100		
CNCCOc1ccc(Nc2ncc3cc([C@@H](C)OC)nc(NC(C)C)c3n2)nc1 [Compound 288]			< 10	≥ 100
C[C@@H](O)c1cc2cnc(Nc3ccc(N4CCCC(C(=O)O)C4)nn3)nc2c(N[C@H]2CC[C@H](O)CC2)n1 (some centres unmarked) [Compound 1218]	< 10	≥ 100		
CC(C)Nc1nc(C(C)O)cc2cnc(Nc3ccc(N4CCC(N)C(F)C4)nn3)nc12 (centres unmarked) [Compound 618]			< 10	≥ 100
CCCNc1nc(C2CCCO2)cc2cnc(Nc3ccc(N4CCNCC4)cn3)nc12 (single isomer, unassigned) [Compound 1026]	10 to 100	≥ 100		
CC(=O)c1nc(NC(C)C)c2nc(Nc3ccc(N4CCNCC4)cn3)ncc2c1C [Compound 68]			< 10	≥ 100
CO[C@H](C)c1cc2cnc(Nc3ccc(CN4CCN(CC(=O)N(C)C)CC4)cn3)nc2c(NC(C)C)n1 [Compound 972]	< 10	≥ 100		
C[C@@H](O)c1cc2cnc(Nc3ccc(CN4CCC(O)CC4)cn3)nc2c(NC(C)(C)C)n1 [Compound 1020]	< 10	≥ 100		
CO[C@H](C)c1cc2cnc(Nc3ccc(N4CCNCC4)nn3)nc2c(NC2CCCC2)n1 [Compound 712]	< 10	≥ 100		
CC(C)Nc1nc([C@@H](C)O)cc2cnc(Nc3ccc(N4CCC(O)C5(CC5)C4)nn3)nc12 (some centres unmarked) [Compound 723]	< 10	≥ 100		
COCC(C)(C)Nc1nc([C@@H](C)O)cc2cnc(Nc3ccc(C4CCCNC4)cn3)nc12 (some centres unmarked) [Compound 333]			< 10	≥ 100
CCCNc1nc([C@@H](C)O)cc2cnc(Nc3ccc(CN4CCN(CCO)C[C@@H]4C)cn3)nc12 [Compound 1077]	< 10	≥ 100		
C[C@@H](O)c1cc2cnc(Nc3ccc4c(n3)CCN(C(=O)CO)C4)nc2c(NC2CCC(C)(C)CC2)n1 [Compound 654]	< 10	≥ 100		
C[C@@H](O)c1cc2cnc(Nc3ccc(N4CCNCC4=O)cn3)nc2c(N[C@H]2CC[C@@H](C)CC2)n1 [Compound 624]			< 10	≥ 100
CO[C@H](C)c1cc2cnc(Nc3ccc(N4CCN(CC(N)=O)CC4)nn3)nc2c(NC(C)C)n1 [Compound 908]	< 10	≥ 100		
C[C@@H](O)c1cc2cnc(Nc3ccc(N4CCNCC4)nn3)nc2c(NC(C)(C)CC(=O)O)n1 [Compound 327]			10 to 100	≥ 100
COCC(C)(C)Nc1nc(C(F)F)cc2cnc(Nc3ccc(N4CCNCC4)cn3)nc12 [Compound 31]			< 10	≥ 100

Source: US10124004B2, “Pyrido[3,4-d]pyrimidine derivative and pharmaceutically acceptable salt thereof” (Teijin Pharma Limited, priority 2015, dated 2018)
